Entries after “also recorded” stand apart in the source; their conditions may differ. Read-outs that look alike come from different tables or passages of the source.
Experiments:
Format in all cases: cell-based
E. lentum = conditions: strain L-34; Table IV (separate study)
B. thetaiotaomicron = conditions: strain UC9014
Method: (§1) The assay measures the ability of a compound to inhibit the growth of certain types of anaerobic bacteria which normally inhabit the gut of poultry, swine or cattle.
(§2) Two mg/ml solutions of the drugs to be tested are made in 10% v/v ethanol/water. This stock is then diluted to one mg per ml and then further diluted through a series of ten-two fold dilutions. At each concentration an aliquot is placed in a sterile petri plate. Nine volumes of molten agar are then added to each plate, mixed and allowed to harden at room temperature. These plates are then transferred to a Coy chamber and allowed to dry and equilibrate with the oxygen free atmosphere.
(§3) Organisms used for MIC testing are inoculated into broth media, and incubated 18-24 h at 39° C. prior to use. The cultures are then diluted to equal the turbidity of a 0.5 MacFarland barium sulfate standard, except for the porcine isolates P108-3C1, P105-1C3 and P105-1C4 which are diluted 1:1. All inoculations and dilutions are performed in the anaerobic chamber using broth media and syringe transfer through the butyl robber stoppers.
(§4) Freshly prepared and diluted cultures are loaded into the wells of a Steers replicator device. This apparatus can dispense ca 10 μl of each of 32 cultures onto the surface of the preincubated agar plates. One hour after the inoculation, the inoculum will have been absorbed and the plates are inverted and incubated at 38°-39° C. for 48 h. Plates are then removed from the chamber and the MIC for the test compounds determined. MIC's are reported as the lowest concentration of a compound which prevented detectable growth of a test organism on the agar plates. […] Thus, each set of test plates yields individual MIC values for each of the 32 test organisms.

S. faecalis = conditions: for M.I.C.: Table III, mass basis, no correction for purity; for Minimal Inhibitory Concentration (bioactivity data): Table IV (separate study)
S. ruminantium = conditions: for M.I.C.: Table III, mass basis, no correction for purity; for Minimal Inhibitory Concentration (bioactivity data): Table IV (separate study)
L. multiparus = conditions: strain 40
B. fibrisolvens = conditions: for M.I.C.: Table III, mass basis, no correction for purity; for Minimal Inhibitory Concentration (bioactivity data): Table IV (separate study)
R. amylophilus = conditions: strain H18
S. bovis = conditions: strain JB1
C. perfringens = system: C. perfringens; parameters: Minimal Inhibitory Concentration (bioactivity data): unit not given here; conditions: for M.I.C.: Table III, mass basis, no correction for purity; for Minimal Inhibitory Concentration (bioactivity data): Table IV (separate study)
R. flavefaciens = conditions: for M.I.C.: Table III, mass basis, no correction for purity; for Minimal Inhibitory Concentration (bioactivity data): Table IV (separate study)
S. hyodysenteriae = system: S. hyodysenteriae; parameters: unit not given here; conditions: Table IV (separate study)
Method: as §1, §2, §3, §4

M. elsdenii = conditions: strain B159
B. fragilis = conditions: strain UC9370
E. ruminantium = conditions: strain GA195
F. necrophorum = conditions: for M.I.C.: Table III, mass basis, no correction for purity; for Minimal Inhibitory Concentration (bioactivity data): Table IV (separate study)
[1] = system: anaerobic bacteria which normally inhabit the gut of poultry, swine or cattle; assay: in vitro MIC assay, overall comparison of components across the test organisms
Method: as §1, §2, §3, §4

P. ruminicola = conditions: strain 118B
[2] = Table III, mass basis, no correction for purity

C=C(NC(=O)c1ccc2c(n1)-c1coc(n1)C(=C)NC(=O)C(=C)NC(=O)c1nc(oc1C)C(=CC)NC(=O)c1csc(n1)C(OC)NC(=O)c1nc(oc1C)C(=CC(C)O)NC(=O)C(C(C)O)NC(=O)c1csc-2n1)C(N)=O (stereo not drawn) [Antibiotic 10381y, 52-de[1-[[[1-(aminocarbonyl)ethenyl]amino]carbonyl]ethenyl]-sulfomycin I]
Minimal Inhibitory Concentration (bioactivity data) (E. lentum): < 0.2
M.I.C. (B. thetaiotaomicron; [2]): < 0.2 µg/mL
Minimal Inhibitory Concentration (bioactivity data) (B. thetaiotaomicron; Table IV (separate study)): 50.0
M.I.C. (S. faecalis; strain 71A01): 6.3 µg/mL
Minimal Inhibitory Concentration (bioactivity data) (S. faecalis; strain 71A01): 6.3
M.I.C. (S. faecalis; strain CCS1-03): 1.6 µg/mL
Minimal Inhibitory Concentration (bioactivity data) (S. faecalis; strain CCS1-03): 3.1
M.I.C. (S. faecalis; strain P1051C4): 1.6 µg/mL
Minimal Inhibitory Concentration (bioactivity data) (S. faecalis; strain P1051C4): 0.8
M.I.C. (S. ruminantium; strain GA31): 25.0 µg/mL
Minimal Inhibitory Concentration (bioactivity data) (S. ruminantium; strain GA31): < 0.2
M.I.C. (S. ruminantium; strain GA192): > 100.0 µg/mL
Minimal Inhibitory Concentration (bioactivity data) (S. ruminantium; strain GA192): < 0.2
M.I.C. (L. multiparus; [2]): < 0.2 µg/mL
Minimal Inhibitory Concentration (bioactivity data) (L. multiparus; Table IV (separate study)): 12.5
M.I.C. (B. fibrisolvens; strain 49): < 0.2 µg/mL
Minimal Inhibitory Concentration (bioactivity data) (B. fibrisolvens; strain 49): 0.4
M.I.C. (B. fibrisolvens; strain D1): < 0.2 µg/mL
Minimal Inhibitory Concentration (bioactivity data) (B. fibrisolvens; strain D1): < 0.2
M.I.C. (R. amylophilus; [2]): 100.0 µg/mL
Minimal Inhibitory Concentration (bioactivity data) (R. amylophilus; Table IV (separate study)): < 0.2
M.I.C. (S. bovis; [2]): 0.4 µg/mL
Minimal Inhibitory Concentration (bioactivity data) (S. bovis; Table IV (separate study)): 0.8
M.I.C. (C. perfringens; strain 71A02): < 0.2 µg/mL
Minimal Inhibitory Concentration (bioactivity data) (C. perfringens; strain 71A02): < 0.2
M.I.C. (C. perfringens; strain A82-1): 0.8 µg/mL
Minimal Inhibitory Concentration (bioactivity data) (C. perfringens; strain A82-1): 12.5
M.I.C. (C. perfringens; strain A83-3): < 0.2 µg/mL
Minimal Inhibitory Concentration (bioactivity data) (C. perfringens; strain A83-3): < 0.2
M.I.C. (C. perfringens; strain A83-RKP): 0.4 µg/mL
Minimal Inhibitory Concentration (bioactivity data) (C. perfringens; strain A83-RKP): < 0.2
M.I.C. (C. perfringens; strain CCS1-11): 0.8 µg/mL
Minimal Inhibitory Concentration (bioactivity data) (C. perfringens; strain CCS1-11): < 0.2
M.I.C. (C. perfringens; strain CCS2-09): < 0.2 µg/mL
Minimal Inhibitory Concentration (bioactivity data) (C. perfringens; strain CCS2-09): < 0.2
M.I.C. (C. perfringens; strain P1051C3): 12.5 µg/mL
Minimal Inhibitory Concentration (bioactivity data) (C. perfringens; strain P1051C3): 6.3
M.I.C. (C. perfringens; strain P1083C1): < 0.2 µg/mL
Minimal Inhibitory Concentration (bioactivity data) (C. perfringens; strain P1083C1): 0.8
M.I.C. (C. perfringens; strain RF1B04): < 0.2 µg/mL
Minimal Inhibitory Concentration (bioactivity data) (C. perfringens; strain RF1B04): < 0.2
M.I.C. (C. perfringens; strain UC9452): < 0.2 µg/mL
Minimal Inhibitory Concentration (bioactivity data) (C. perfringens; strain UC9452): 0.8
M.I.C. (R. flavefaciens; strain C94): 6.3 µg/mL
Minimal Inhibitory Concentration (bioactivity data) (R. flavefaciens; strain C94): 0.8
M.I.C. (R. flavefaciens; strain FD1): < 0.2 µg/mL
Minimal Inhibitory Concentration (bioactivity data) (R. flavefaciens; strain FD1): 0.4
Minimal Inhibitory Concentration (bioactivity data) (S. hyodysenteriae; strain 16-4): > 100
Minimal Inhibitory Concentration (bioactivity data) (S. hyodysenteriae; strain B204): > 100
M.I.C. (M. elsdenii; [2]): > 100.0 µg/mL
Minimal Inhibitory Concentration (bioactivity data) (M. elsdenii; Table IV (separate study)): > 100
M.I.C. (B. fragilis; [2]): 1.6 µg/mL
Minimal Inhibitory Concentration (bioactivity data) (B. fragilis; Table IV (separate study)): 50.0
M.I.C. (E. ruminantium; [2]): 6.3 µg/mL
Minimal Inhibitory Concentration (bioactivity data) (E. ruminantium; Table IV (separate study)): 0.8
M.I.C. (F. necrophorum; strain FN4070): 25.0 µg/mL
Minimal Inhibitory Concentration (bioactivity data) (F. necrophorum; strain FN4070): 50.0
M.I.C. (F. necrophorum; strain FN5052): 25.0 µg/mL
Minimal Inhibitory Concentration (bioactivity data) (F. necrophorum; strain FN5052): 50.0
bioactivity relative to the 10381b antibiotic complex or the 10381b (10381b2) component ([1]; against a variety of microorganisms): increased antimicrobial activity; also recorded: about double
in vitro activity ranking of the individual components ([1]; conclusion from Tables III and IV): most active
M.I.C. (P. ruminicola; [2]): < 0.2 µg/mL
Minimal Inhibitory Concentration (bioactivity data) (P. ruminicola; Table IV (separate study)): < 0.2
